Article PMC9628931 (Chemical Science, 2022)

Key:
AsAKS2 (BAHD5, 37058_t) = target: T1, AsAKS2 (BAHD5, 37058_t) (Alstonia scholaris, UniProt A0A9E7LUL3); experiment: LCMS detection of akuammiline; type: biochemical; details: co-substrate rhazimol
T1 sequence (A0A9E7LUL3 1-450): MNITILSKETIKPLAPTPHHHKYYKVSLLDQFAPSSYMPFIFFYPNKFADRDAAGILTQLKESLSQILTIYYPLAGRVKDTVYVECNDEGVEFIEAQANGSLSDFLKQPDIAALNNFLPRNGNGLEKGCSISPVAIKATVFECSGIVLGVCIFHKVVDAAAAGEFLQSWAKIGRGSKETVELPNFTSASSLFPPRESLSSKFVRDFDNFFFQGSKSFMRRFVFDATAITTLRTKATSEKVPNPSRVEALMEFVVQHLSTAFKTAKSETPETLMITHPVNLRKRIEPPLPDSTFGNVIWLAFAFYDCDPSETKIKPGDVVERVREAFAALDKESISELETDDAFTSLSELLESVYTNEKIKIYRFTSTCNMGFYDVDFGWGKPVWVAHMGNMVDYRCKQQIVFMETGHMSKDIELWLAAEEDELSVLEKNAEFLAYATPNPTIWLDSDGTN

AsAKS1 (BAHD3, 43565_t) = target: T2, AsAKS1 (BAHD3, 43565_t) (Alstonia scholaris, UniProt A0A9E7S5E3); experiment: LCMS detection of akuammiline; type: biochemical; details: co-substrate rhazimol
T2 sequence (A0A9E7S5E3 1-419): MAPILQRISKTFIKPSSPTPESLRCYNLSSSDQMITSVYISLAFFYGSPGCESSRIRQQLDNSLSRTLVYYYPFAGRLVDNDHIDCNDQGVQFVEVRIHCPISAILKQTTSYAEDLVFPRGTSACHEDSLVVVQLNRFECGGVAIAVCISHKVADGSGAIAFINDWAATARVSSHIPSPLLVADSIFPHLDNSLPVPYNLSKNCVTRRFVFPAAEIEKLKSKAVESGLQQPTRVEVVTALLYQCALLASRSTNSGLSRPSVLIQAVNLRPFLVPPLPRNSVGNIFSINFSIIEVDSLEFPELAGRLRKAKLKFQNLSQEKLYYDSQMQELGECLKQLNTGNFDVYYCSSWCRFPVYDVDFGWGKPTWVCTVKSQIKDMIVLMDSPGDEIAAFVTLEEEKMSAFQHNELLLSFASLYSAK

SMILES: CC(=O)SCCNC(=O)CCNC(=O)[C@H](O)C(C)(C)COP(=O)(O)OP(=O)(O)OC[C@H]1O[C@@H](n2cnc3c(N)ncnc32)[C@H](O)[C@@H]1OP(=O)(O)O [acetyl-CoA]
- LCMS detection of akuammiline (AsAKS2 (BAHD5, 37058_t)): The BAHD candidates were assayed by incubation with rhazimol and acetyl-CoA
- LCMS detection of akuammiline (AsAKS1 (BAHD3, 43565_t)): The BAHD candidates were assayed by incubation with rhazimol and acetyl-CoA
